Structures are written as SMILES.

The test system of assay [1] is MDA-MB-453. Nature of the assay: drug sensitivity score (DSS), single agent (DSS (weighted AUC score)); higher = more sensitive (stronger viability decrease); extreme values may be limits of the assay. To be noted: BLU9931 0 nM; 72 h. The procedure, abridged:
(§1)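 Compounds from the FIMM Oncology set were predispensed in singlicate at five 10-fold dilutions (10,000-fold range) on 384-well plates. Each well then received 2000 MDA-MB-453 cells in medium with or without an FGFR4 inhibitor (100 nM final) and was kept at 37 °C, 5% CO2. Cellular ATP was read with CellTiterGlo 2.0 after 72 h and normalised per plate to percent viability from control wells. The drug sensitivity score is a weighted area under a four-parameter logistic fit.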

Assay [2] deals with MDA-MB-453. Put plainly: drug sensitivity score (DSS), in combination with BLU9931 (DSS (weighted AUC score)); higher = more sensitive (stronger viability decrease); extreme values may be limits of the assay. To be noted: BLU9931 100 nM; 72 h. The procedure, abridged:
as §1

As for `NC(=O)c1cccc(-c2cccc(OC(=O)NC3CCCCC3)c2)c1` [URB597], the drug sensitivity score with MDA-MB-453 [1] and in the assay with MDA-MB-453 [2] was 0 each time.
Regarding `CC/C(=C(\c1ccccc1)c1ccc(OCCN(C)C)cc1)c1ccccc1` [Tamoxifen], the drug sensitivity score with MDA-MB-453 [1] amounted to 5.3; in the assay with MDA-MB-453 [2], 2.4.
Turning to `COc1cc([C@@H]2c3cc4c(cc3[C@@H](O[C@@H]3O[C@@H]5CO[C@@H](C)O[C@H]5[C@H](O)[C@H]3O)[C@H]3COC(=O)[C@H]23)OCO4)cc(OC)c1O` [Etoposide], the figures for the drug sensitivity score with MDA-MB-453 [1] and in the assay with MDA-MB-453 [2] were 2.8 and 2.9, respectively.
Taken in the same sequence, the figures for `CS(=O)(=O)N1CCN(Cc2cc3nc(-c4cccc5[nH]ncc45)nc(N4CCOCC4)c3s2)CC1` [Pictilisib] were 16.6 and 17.4.
Regarding `CO[C@H](C(=O)[C@@H](O)[C@@H](C)O)[C@@H]1Cc2cc3cc(O[C@H]4C[C@@H](O[C@@H]5C[C@@H](O)[C@H](O)[C@@H](C)O5)[C@H](O)[C@@H](C)O4)c(C)c(O)c3c(O)c2C(=O)[C@H]1O[C@H]1C[C@@H](O[C@@H]2C[C@@H](O)[C@@H](O[C@@H]3C[C@](C)(O)[C@H](O)[C@@H](C)O3)[C@@H](C)O2)[C@H](O)[C@@H](C)O1` [Plicamycin], the drug sensitivity score with MDA-MB-453 [1] and in the assay with MDA-MB-453 [2] was 15.7 in each case.
Consider `CC(C)c1c(C(=O)Nc2ccccc2)c(-c2ccccc2)c(-c2ccc(F)cc2)n1CC[C@@H](O)C[C@@H](O)CC(=O)O` [Atorvastatin], for which the drug sensitivity score in the assay on MDA-MB-453 [1] and in the assay with MDA-MB-453 [2] was 0 each time.
As for `CNC(=O)c1cc(Oc2ccc(NC(=O)Nc3ccc(Cl)c(C(F)(F)F)c3)c(F)c2)ccn1` [Regorafenib], the drug sensitivity score in the assay with MDA-MB-453 [1] stood at 3; in the assay on MDA-MB-453 [2], 1.5.
Taken in the same sequence, the figures for `O=C(Nc1nc2cccc(-c3ccc(CN4CCS(=O)(=O)CC4)cc3)n2n1)C1CC1` [Filgotinib] were 2.9 and 2.5.
Taken in the same sequence, the figures for `C/C=C1\NC(=O)[C@H]2CSSCC/C=C/[C@H](CC(=O)N[C@H](C(C)C)C(=O)N2)OC(=O)[C@H](C(C)C)NC1=O` [Romidepsin] were 32 and 33.3.
For the compound `C=CC(=O)Nc1cc2c(Nc3ccc(F)c(Cl)c3)ncnc2cc1OCCCN1CCOCC1` [Canertinib], the results for the drug sensitivity score in the assay with MDA-MB-453 [1] and in the assay on MDA-MB-453 [2] were 15.5 and 17.8, respectively.
With `C[C@@H]1COCCN1c1cc(C2([S@](C)(=N)=O)CC2)nc(-c2cc[nH]c3nccc2-3)n1` [AZD6738], the values for the drug sensitivity score with MDA-MB-453 [1] and in the assay with MDA-MB-453 [2] were 11 and 10.7, respectively.
Turning to `C[C@@H]1C[C@H]2[C@@H]3CCC4=CC(=O)C=C[C@]4(C)[C@@]3(F)[C@@H](O)C[C@]2(C)[C@@]1(O)C(=O)CO` [Dexamethasone], the results for the drug sensitivity score in the assay on MDA-MB-453 [1] and in the assay with MDA-MB-453 [2] were 4 and 0, respectively.
Taken in the same sequence, the figures for `CN1CCN(CCOc2cc(OC3CCOCC3)c3c(Nc4c(Cl)ccc5c4OCO5)ncnc3c2)CC1` [Saracatinib] were 1.5 and 3.6.
Take `COc1cc(Nc2ncc3c(n2)-c2ccc(Cl)cc2C(c2c(F)cccc2OC)=NC3)ccc1C(=O)O` [Alisertib]: the figures for the drug sensitivity score with MDA-MB-453 [1] and with MDA-MB-453 [2] were 0 and 1.7, respectively.
The matching figures for `N#Cc1ccc2[nH]c(O)c(-c3ccc(CN4CCOCC4)cn3)c2c1` [AZD-1080]: 0 and 0.
The matching figures for `CCc1c(C(=O)C(N)=O)c2c(OCC(=O)O)cccc2n1Cc1ccccc1` [Varespladib]: 0 and 0.8.
The matching figures for `CN1CCN(c2cc(C(=O)Nc3ccc4c(c3)-c3c(c(C(N)=O)nn3-c3ccc(F)cc3)CC4)c(Cl)cn2)CC1` [PHA 408]: 4.9 and 3.4.
For `COC(=O)c1ccc2c(c1)NC(=O)/C2=C(\Nc1ccc(N(C)C(=O)CN2CCN(C)CC2)cc1)c1ccccc1` [Nintedanib], the drug sensitivity score in the assay on MDA-MB-453 [1] came to 4.7; in the assay with MDA-MB-453 [2], 1.9.
The matching figures for `CCCCNc1ncc(C(=O)NCc2ccc(-n3ccnc3)cc2)c(NC2CCC(O)CC2)n1` (configuration not stated) [UNC2881]: 0 and 0.
Take `COc1cc(Br)c(Nc2nc(-c3c(C)nc4ncccn34)cs2)c(Br)c1` [PTC-209]: the values for the drug sensitivity score in the assay with MDA-MB-453 [1] and with MDA-MB-453 [2] were 3.2 and 2, respectively.
For the compound `CC[C@]12C=CCN3CC[C@@]4(c5cc([C@@]6(C(=O)OC)C[C@@H]7C[C@@H](C(C)(F)F)CN(Cc8c6[nH]c6ccccc86)C7)c(OC)cc5N(C)[C@H]4[C@@](O)(C(=O)OC)[C@@H]1OC(C)=O)[C@@H]32` [Vinflunine], the drug sensitivity score is 2.6 in the assay with MDA-MB-453 [1] and 1.3 in the assay with MDA-MB-453 [2].
The matching figures for `CC(C)[C@@H](CS(=O)(=O)C(C)C)N1C(=O)[C@@](C)(CC(=O)O)C[C@H](c2cccc(Cl)c2)[C@H]1c1ccc(Cl)cc1` [AMG-232]: 0.2 and 0.
Take `O=C(O)c1ccc(O)c2ncccc12` [IOX-1]: the drug sensitivity score in the assay on MDA-MB-453 [1] was found to be 1.6; with MDA-MB-453 [2], 3.6.
Turning to `CN1CCN(c2ccc(C(=O)Nc3n[nH]c4ccc(Cc5cc(F)cc(F)c5)cc34)c(NC3CCOCC3)c2)CC1` [Entrectinib], the drug sensitivity score in the assay with MDA-MB-453 [1] and in the assay on MDA-MB-453 [2] was 0 in each case.
As to `O=C1CCC(N2C(=O)c3ccccc3C2=O)C(=O)N1` (configuration not stated) [Thalidomide], the drug sensitivity score in the assay on MDA-MB-453 [1] came out at 0; with MDA-MB-453 [2], 1.
The matching figures for `Nc1nc(Cl)nc2c1ncn2[C@@H]1O[C@H](CO)[C@@H](O)[C@@H]1F` [Clofarabine]: 4.4 and 3.9.
The matching figures for `C=CC(=O)Nc1cccc(Nc2nc(Nc3ccc(OCCOC)cc3)ncc2F)c1` [Spebrutinib]: 0.7 and 0.9.
Taken in the same sequence, the figures for `CNC(=O)c1ccc(-c2cnc3ncc(Cc4ccc5ncccc5c4)n3n2)cc1F` [Capmatinib] were 0 and 0.
As for `CN(C)C(=O)c1ccc(S(=O)(=O)c2ccc(NC(=O)[C@@](C)(O)C(F)(F)F)c(Cl)c2)cc1` [AZD7545], the drug sensitivity score in the assay on MDA-MB-453 [1] came out at 0.1; with MDA-MB-453 [2], 0.2.
For the compound `CC[C@@H]1C(=O)N(C)c2cnc(Nc3ccc(C(=O)NC4CCN(C)CC4)cc3OC)nc2N1C1CCCC1` [BI 2536], the drug sensitivity score in the assay on MDA-MB-453 [1] was determined as 10.4; in the assay with MDA-MB-453 [2] it was 9.2.
Taken in the same sequence, the figures for `Cc1ccc(C(=O)Nc2ccc(CN3CCN(C)CC3)c(C(F)(F)F)c2)cc1C#Cc1cnc2cccnn12` [Ponatinib] were 5.9 and 1.7.
Taken in the same sequence, the figures for `CCC1=C[C@@H]2CN(C1)Cc1c([nH]c3ccccc13)[C@@](C(=O)OC)(c1cc3c(cc1OC)N(C)[C@H]1[C@@](O)(C(=O)OC)[C@H](OC(C)=O)[C@]4(CC)C=CCN5CC[C@]31[C@@H]54)C2` [Vinorelbine] were 23.2 and 19.
The matching figures for `Cc1ccc(NC(=O)c2ccc(CN3CCN(C)CC3)cc2)cc1Nc1nc(-c2cccnc2)cs1` [Masitinib]: 3.1 and 1.8.
Take `N#CC1(c2ccc(NC(=O)c3cccnc3NCc3ccncc3)cc2)CCCC1` [Apatinib]: the drug sensitivity score is 0.7 in the assay with MDA-MB-453 [1] and 0 in the assay on MDA-MB-453 [2].
The matching figures for `COc1cccc2c1c(O)c(C(=O)N(C)c1ccc(C(F)(F)F)cc1)c(=O)n2C` [Tasquinimod]: 2.9 and 1.4.
The matching figures for `C[C@H]1C[C@@H](n2c(Nc3ccc(OC(F)(F)F)cc3)nc3cc(CCC(=O)O)ccc32)CC(C)(C)C1`: 0 and 0.
The matching figures for `Cc1cc(Nc2cc(N3CCN(C)CC3)nc(/C=C/c3ccccc3)n2)n[nH]1` [ENMD-2076]: 7.1 and 7.8.
Take `CNC(=O)c1cccc2cc(Oc3ccnc4cc(OCC5(N)CC5)c(OC)cc34)ccc12` [Lucitanib]: the drug sensitivity score with MDA-MB-453 [1] stood at 2.9; with MDA-MB-453 [2] it was 0.9.
Consider `CCNC(=O)C[C@@H]1N=C(c2ccc(Cl)cc2)c2cc(OC)ccc2-n2c(C)nnc21` [Molibresib], for which the drug sensitivity score in the assay with MDA-MB-453 [1] came to 10; in the assay on MDA-MB-453 [2], 9.8.
Taken in the same sequence, the figures for `CC[C@@]1(O)C(=O)OCc2c1cc1n(c2=O)Cc2cc3c(CN(C)C)c(O)ccc3nc2-1` [Topotecan] were 14.7 and 12.5.
The matching figures for `Cn1cnc2c(F)c(Nc3ccc(Br)cc3F)c(C(=O)NOCCO)cc21` [Binimetinib]: 0 and 0.2.
As for `O=C(NC1CCNCC1)c1n[nH]cc1NC(=O)c1c(Cl)cccc1Cl` [AT7519], the drug sensitivity score in the assay with MDA-MB-453 [1] turned out to be 13.2; with MDA-MB-453 [2] it was 14.6.
The matching figures for `C[C@@H]1COC(Nc2ccc3ncnc(Nc4ccc(OCc5nccs5)c(Cl)c4)c3c2)=N1` [Varlitinib]: 6.3 and 9.1.
Taken in the same sequence, the figures for `CON(C)C(=O)N1N=C(c2cc(F)ccc2F)S[C@@]1(CCCN)c1ccccc1` [Filanesib] were 16.7 and 15.3.
The matching figures for `O=C(c1ccc(C(=O)N2CCC(N3CCCC3)CC2)c(Nc2ccccc2)c1)N1CCC(N2CCCC2)CC1` [UNC1215]: 0 and 0.
As to `NC(=S)N/N=C/c1ncccc1N` [Triapine], the results for the drug sensitivity score with MDA-MB-453 [1] and with MDA-MB-453 [2] were 0.1 and 1.3, respectively.

The record behind these values is the supplement of paper PMC7224384.
